The target in assay [1] is 72 kDa type IV collagenase (Homo sapiens, UniProt P08253).
Description: In vitro inhibition of Matrix metalloprotease-2
Assay [2] deals with Matrix metalloproteinase-9 (Homo sapiens, UniProt P14780). In words: In vitro inhibition of Matrix metalloprotease-9.
Assay [3] addresses Disintegrin and metalloproteinase domain-containing protein 17 (Homo sapiens, UniProt P78536). In words: Inhibition of TNF-alpha production from LPS stimulated human whole blood. The assay is classed as functional, tissue-based.
Assay [4] deals with Disintegrin and metalloproteinase domain-containing protein 17 (Sus scrofa, UniProt O77636). In words: In vitro inhibition of TNF-alpha converting enzyme.
Chain of Disintegrin and metalloproteinase domain-containing protein 17 (Sus scrofa, UniProt O77636) (O77636 whole entry, the tested form may be a part): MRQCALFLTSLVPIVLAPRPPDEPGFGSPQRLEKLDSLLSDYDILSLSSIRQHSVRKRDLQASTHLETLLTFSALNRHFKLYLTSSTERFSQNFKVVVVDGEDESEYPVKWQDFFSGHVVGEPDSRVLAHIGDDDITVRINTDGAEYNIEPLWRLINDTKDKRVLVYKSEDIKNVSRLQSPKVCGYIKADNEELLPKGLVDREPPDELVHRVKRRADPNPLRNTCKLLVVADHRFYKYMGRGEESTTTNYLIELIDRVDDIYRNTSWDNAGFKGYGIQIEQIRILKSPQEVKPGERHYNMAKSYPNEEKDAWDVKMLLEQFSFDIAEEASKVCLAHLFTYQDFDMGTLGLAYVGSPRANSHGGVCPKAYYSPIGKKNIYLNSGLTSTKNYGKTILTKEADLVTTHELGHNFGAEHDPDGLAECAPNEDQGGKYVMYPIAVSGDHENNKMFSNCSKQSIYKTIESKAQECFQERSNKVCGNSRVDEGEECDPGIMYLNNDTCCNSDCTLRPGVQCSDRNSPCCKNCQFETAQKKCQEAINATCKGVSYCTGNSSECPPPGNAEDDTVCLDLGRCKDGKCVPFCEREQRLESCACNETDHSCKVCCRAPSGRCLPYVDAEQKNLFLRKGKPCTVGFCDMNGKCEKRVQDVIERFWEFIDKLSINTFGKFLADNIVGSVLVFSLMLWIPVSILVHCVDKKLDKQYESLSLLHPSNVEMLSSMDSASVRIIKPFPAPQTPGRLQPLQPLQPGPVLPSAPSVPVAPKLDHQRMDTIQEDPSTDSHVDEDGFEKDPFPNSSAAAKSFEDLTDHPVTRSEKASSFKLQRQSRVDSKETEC
In a further assay the target is T1, Interstitial collagenase (Homo sapiens, UniProt P03956).
T1 sequence (P03956 whole entry): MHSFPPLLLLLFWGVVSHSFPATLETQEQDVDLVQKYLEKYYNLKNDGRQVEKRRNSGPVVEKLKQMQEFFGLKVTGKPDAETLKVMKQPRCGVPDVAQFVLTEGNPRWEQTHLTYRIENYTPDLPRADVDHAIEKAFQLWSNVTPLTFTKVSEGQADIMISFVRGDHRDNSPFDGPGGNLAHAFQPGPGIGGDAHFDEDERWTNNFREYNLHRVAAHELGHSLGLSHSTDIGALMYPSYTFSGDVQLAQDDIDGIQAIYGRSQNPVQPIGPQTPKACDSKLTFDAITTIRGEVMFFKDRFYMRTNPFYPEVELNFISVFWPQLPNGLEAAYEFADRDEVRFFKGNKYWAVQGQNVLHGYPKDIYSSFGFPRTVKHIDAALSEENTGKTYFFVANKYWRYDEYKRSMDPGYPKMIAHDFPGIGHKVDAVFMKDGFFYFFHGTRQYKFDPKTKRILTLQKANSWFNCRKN
In words: In vitro inhibition of Matrix metalloprotease-1.

What is called Ki is the equilibrium dissociation constant of an inhibitor or competing ligand from its target. As a reminder, the IC50 is the concentration needed to halve the response being measured.

Chain of Matrix metalloproteinase-9 (P14780 whole entry, the tested form may be a part): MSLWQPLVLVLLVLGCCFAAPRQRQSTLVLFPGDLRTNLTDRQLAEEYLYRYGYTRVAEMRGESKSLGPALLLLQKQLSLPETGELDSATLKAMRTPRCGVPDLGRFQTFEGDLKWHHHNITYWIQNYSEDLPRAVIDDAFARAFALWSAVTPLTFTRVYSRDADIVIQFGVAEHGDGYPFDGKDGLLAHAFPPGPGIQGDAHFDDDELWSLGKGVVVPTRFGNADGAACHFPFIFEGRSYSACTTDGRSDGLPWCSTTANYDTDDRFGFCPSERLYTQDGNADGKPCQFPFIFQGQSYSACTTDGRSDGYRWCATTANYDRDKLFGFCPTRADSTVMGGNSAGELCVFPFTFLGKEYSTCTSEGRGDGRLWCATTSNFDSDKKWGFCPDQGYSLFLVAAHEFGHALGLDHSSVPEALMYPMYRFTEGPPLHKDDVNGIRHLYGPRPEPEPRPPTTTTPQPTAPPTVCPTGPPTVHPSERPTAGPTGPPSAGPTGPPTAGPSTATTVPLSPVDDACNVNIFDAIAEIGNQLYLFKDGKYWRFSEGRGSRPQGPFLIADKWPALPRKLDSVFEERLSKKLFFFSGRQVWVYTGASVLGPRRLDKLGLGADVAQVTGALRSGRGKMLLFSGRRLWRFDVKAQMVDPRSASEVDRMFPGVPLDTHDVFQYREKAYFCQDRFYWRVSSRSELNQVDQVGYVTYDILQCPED
Chain of Disintegrin and metalloproteinase domain-containing protein 17 (Homo sapiens, UniProt P78536) (P78536 whole entry, the tested form may be a part): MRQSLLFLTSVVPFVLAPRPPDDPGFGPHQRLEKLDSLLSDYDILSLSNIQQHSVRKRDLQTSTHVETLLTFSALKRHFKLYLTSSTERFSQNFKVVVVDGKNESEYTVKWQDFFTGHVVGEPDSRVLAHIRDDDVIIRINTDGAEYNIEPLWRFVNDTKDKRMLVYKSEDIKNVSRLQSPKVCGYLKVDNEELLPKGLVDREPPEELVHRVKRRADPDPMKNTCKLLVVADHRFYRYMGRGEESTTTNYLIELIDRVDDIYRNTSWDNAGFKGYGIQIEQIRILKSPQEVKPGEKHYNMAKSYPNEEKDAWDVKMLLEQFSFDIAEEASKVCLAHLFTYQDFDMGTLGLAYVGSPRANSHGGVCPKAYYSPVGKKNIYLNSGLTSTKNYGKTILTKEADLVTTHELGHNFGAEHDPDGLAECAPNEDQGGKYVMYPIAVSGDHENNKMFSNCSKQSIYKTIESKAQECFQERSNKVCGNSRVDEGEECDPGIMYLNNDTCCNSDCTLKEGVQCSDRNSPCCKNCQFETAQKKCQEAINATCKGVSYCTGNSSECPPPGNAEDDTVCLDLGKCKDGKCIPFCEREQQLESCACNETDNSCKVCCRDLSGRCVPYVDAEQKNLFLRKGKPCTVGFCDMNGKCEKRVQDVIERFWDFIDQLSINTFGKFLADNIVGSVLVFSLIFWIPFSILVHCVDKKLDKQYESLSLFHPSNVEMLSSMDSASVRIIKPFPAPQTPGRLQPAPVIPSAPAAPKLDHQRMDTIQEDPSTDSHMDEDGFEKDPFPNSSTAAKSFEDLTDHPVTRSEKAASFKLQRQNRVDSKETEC
Chain of 72 kDa type IV collagenase (P08253 whole entry): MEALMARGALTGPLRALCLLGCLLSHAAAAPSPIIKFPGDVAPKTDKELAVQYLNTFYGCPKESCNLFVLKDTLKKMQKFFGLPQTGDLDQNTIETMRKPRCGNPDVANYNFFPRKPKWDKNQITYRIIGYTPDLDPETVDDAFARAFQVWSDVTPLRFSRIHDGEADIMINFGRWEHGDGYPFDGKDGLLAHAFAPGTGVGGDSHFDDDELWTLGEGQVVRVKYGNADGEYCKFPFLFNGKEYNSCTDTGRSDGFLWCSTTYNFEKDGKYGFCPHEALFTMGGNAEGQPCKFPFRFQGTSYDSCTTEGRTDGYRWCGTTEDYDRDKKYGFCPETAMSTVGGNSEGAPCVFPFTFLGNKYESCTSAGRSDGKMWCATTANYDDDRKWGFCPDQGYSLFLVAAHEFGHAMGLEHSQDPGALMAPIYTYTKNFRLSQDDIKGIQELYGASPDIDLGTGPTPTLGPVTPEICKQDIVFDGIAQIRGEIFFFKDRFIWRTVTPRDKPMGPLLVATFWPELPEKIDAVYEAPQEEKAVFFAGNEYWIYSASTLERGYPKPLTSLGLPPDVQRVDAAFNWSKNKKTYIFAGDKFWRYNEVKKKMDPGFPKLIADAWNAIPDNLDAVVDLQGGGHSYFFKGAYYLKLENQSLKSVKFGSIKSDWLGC

With `Cc1cc(COc2ccc(N3CC[C@H]([C@H](NC(=O)OC(C)(C)C)C(=O)NO)C3=O)cc2)c2ccccc2n1`, the results for the Ki (in assay [1]; in assay [2]; at Interstitial collagenase) were 324 nM, 291 nM and 788 nM, respectively. Also, the IC50 in assay [3] was determined as 420 nM; in assay [4] it was 1 nM.
On to `Cc1cc(COc2ccc(N3CC[C@H]([C@H](O)C(=O)NO)C3=O)cc2)c2ccccc2n1`, for which the Ki in assay [1] is greater than 3000 nM; in assay [2], greater than 2000 nM; on Interstitial collagenase, greater than 5000 nM. The IC50 was determined as 2400 nM in assay [3] and 3 nM in assay [4].
In the same order, the values of `Cc1cc(COc2ccc(N3CC[C@](N)([C@H](C)C(=O)NO)C3=O)cc2)c2ccccc2n1` are greater than 3000 nM, greater than 2000 nM, greater than 5000 nM, 1100 nM and 2 nM.
`Cc1cc(COc2ccc(N3CC[C@H]([C@H](N)C(=O)NO)C3=O)cc2)c2ccccc2n1`: the Ki is 446 nM in assay [1], 1960 nM in assay [2] and greater than 5000 nM at Interstitial collagenase. Also, the IC50 in assay [3] is 1700 nM; in assay [4] it was 2 nM.
With `Cc1cc(COc2ccc(N3CC[C@@]([C@H](C)C(=O)NO)(N(C)C)C3=O)cc2)c2ccccc2n1`, the Ki in assay [2] was 1300 nM; at Interstitial collagenase it was greater than 5000 nM. For the same compound, the values for the IC50 in assay [3] and in assay [4] were greater than 3000 nM and 12 nM, respectively.
As to `Cc1cc(COc2ccc(N3CC[C@H]([C@@H](C)C(=O)NO)C3=O)cc2)c2ccccc2n1`, the Ki in assay [1] is greater than 3000 nM; in assay [2], greater than 2000 nM; on Interstitial collagenase it was greater than 5000 nM. The IC50 in assay [3] is greater than 3000 nM; in assay [4], 52 nM.
Turning to `Cc1cc(COc2ccc(N3CC[C@H]([C@@H](C(=O)NO)N(C)C)C3=O)cc2)c2ccccc2n1`, the results for the Ki (in assay [1]; in assay [2]; at Interstitial collagenase) were greater than 3000 nM, greater than 2000 nM and greater than 5000 nM, respectively. The results for the IC50 in assay [3] and in assay [4] were 1500 nM and 7 nM, respectively.
Take `Cc1cc(COc2ccc(N3CC[C@H]([C@H](C)N(O)C=O)C3=O)cc2)c2ccccc2n1`: the figures for the Ki (in assay [1]; in assay [2]; on Interstitial collagenase) were greater than 3000 nM, greater than 2000 nM and greater than 5000 nM, respectively. In addition, the figures for the IC50 in assay [3] and in assay [4] were 8700 nM and 2 nM, respectively.
For the compound `Cc1cc(COc2ccc(N3CC[C@H]([C@H](NC(=O)c4ccccc4)C(=O)NO)C3=O)cc2)c2ccccc2n1`, the Ki in assay [1] was 435 nM; in assay [2], greater than 2000 nM; on Interstitial collagenase it was greater than 5000 nM. Moreover, the IC50 in assay [3] was determined as 9100 nM; in assay [4], 1 nM.
On to `CCC[C@@H](C(=O)NO)[C@H]1CCN(c2ccc(OCc3cc(C)nc4ccccc34)cc2)C1=O`, for which the Ki in assay [1] is greater than 3000 nM; in assay [2], greater than 2000 nM; on Interstitial collagenase, greater than 5000 nM. This compound also showed an IC50 in assay [4] of 140 nM.
With `C[C@@H]([C@H]1CCN(c2ccc(OCc3ccccc3)cc2)C1=O)N(O)C=O`, the Ki in assay [1] is greater than 567 nM; in assay [2], greater than 2000 nM; on Interstitial collagenase it was greater than 5000 nM. In addition, the IC50 is greater than 10000 nM in assay [3] and 111 nM in assay [4].
As to `CCC[C@H](C(=O)NO)[C@@]1(N)CCN(c2ccc(OCc3cc(C)nc4ccccc34)cc2)C1=O`, the Ki in assay [1] is greater than 3000 nM; in assay [2], greater than 2000 nM; at Interstitial collagenase, greater than 5000 nM. Moreover, the IC50 in assay [3] was greater than 3000 nM; in assay [4] it was 4 nM.
Regarding `Cc1cc(COc2ccc(N3CC[C@H]([C@H](N)C(=O)NO)C3=O)cc2)cc(C)n1`, the Ki in assay [1] is greater than 3000 nM; in assay [2], greater than 2000 nM; at Interstitial collagenase it was greater than 5000 nM. For the same compound, the IC50 in assay [3] was greater than 10000 nM; in assay [4], 50 nM.
For `CC(=O)N[C@H](C(=O)NO)[C@H]1CCN(c2ccc(OCc3cc(C)nc4ccccc34)cc2)C1=O`, the Ki in assay [1] was 194 nM; in assay [2], greater than 2000 nM; on Interstitial collagenase, greater than 5000 nM. In addition, the IC50 in assay [3] was determined as 1560 nM; in assay [4], 1 nM.
For `CCC[C@@H](C(=O)NO)[C@@]1(N)CCN(c2ccc(OCc3cc(C)nc4ccccc34)cc2)C1=O` the same measures were greater than 3000 nM, greater than 2000 nM, greater than 5000 nM, greater than 10000 nM and 405 nM.
Regarding `Cc1cc(COc2ccc(N3CC[C@H]([C@H](NC(=O)C(C)(C)C)C(=O)NO)C3=O)cc2)c2ccccc2n1`, the Ki in assay [1] is 1240 nM; in assay [2], greater than 2000 nM; on Interstitial collagenase it was greater than 5000 nM. Also, the IC50 in assay [3] is 4950 nM; in assay [4], less than 1 nM.
In the same order, the values of `Cc1cc(COc2ccc(N3CC[C@H]([C@@H](C(=O)NO)N4CCCC4)C3=O)cc2)c2ccccc2n1` are greater than 3000 nM, greater than 2000 nM, greater than 5000 nM, greater than 10000 nM and 26 nM.
As to `CCCCOC(=O)N[C@H](C(=O)NO)[C@H]1CCN(c2ccc(OCc3cc(C)nc4ccccc34)cc2)C1=O`, the Ki in assay [1] was greater than 305 nM; in assay [2], greater than 2000 nM; at Interstitial collagenase, greater than 1630 nM. For the same compound, the IC50 amounted to 6830 nM in assay [3] and 2 nM in assay [4].
For `Cc1cc(COc2ccc(N3CC[C@H]([C@H](C)C(=O)NO)C3=O)cc2)c2ccccc2n1` the same measures were greater than 1270 nM, greater than 2000 nM, greater than 5000 nM, 1570 nM and 1 nM.
In the case of `Cc1cc(COc2ccc(N3CC[C@H]([C@H](NC(=O)OC(C)(C)C)C(=O)NO)C3=O)cc2)cc(C)n1`, the results for the Ki (in assay [1]; on Interstitial collagenase) were greater than 3000 nM and 2240 nM, respectively. The IC50 in assay [3] is greater than 3000 nM; in assay [4], 6 nM.
For `Cc1cc(COc2ccc(N3CC[C@H]([C@H](NC(=O)N4CCOCC4)C(=O)NO)C3=O)cc2)c2ccccc2n1`, the Ki was 805 nM in assay [1], greater than 2000 nM in assay [2] and greater than 5000 nM at Interstitial collagenase. Moreover, the results for the IC50 in assay [3] and in assay [4] were 840 nM and less than 1 nM, respectively.
In the same order, the values of `COC(=O)N[C@H](C(=O)NO)[C@H]1CCN(c2ccc(OCc3cc(C)nc4ccccc34)cc2)C1=O` are 482 nM, greater than 2000 nM, greater than 5000 nM, 2650 nM and less than 1 nM.
For `Cc1cc(COc2ccc(N3CC[C@](N)(CC(=O)NO)C3=O)cc2)c2ccccc2n1`, the Ki was greater than 3000 nM in assay [1], greater than 2000 nM in assay [2] and greater than 5000 nM at Interstitial collagenase. In addition, the figures for the IC50 in assay [3] and in assay [4] were 4800 nM and 5 nM, respectively.

Source of the values: ChEMBL document CHEMBL1136542, “Discovery of N-hydroxy-2-(2-oxo-3-pyrrolidinyl)acetamides as potent and selective inhibitors of tumor necrosis factor-alpha converting enzyme (TACE)” (Bioorg Med Chem Lett, 2003).
